From patent US20050209278A1, “Piperidinyl- and piperazinyl-sulfonylmethyl hydroxamic acids and their use as protease inhibitors” (priority 2002, published 2005)
Where a name gives a salt, the structure may show the parent alone. Read-outs that look alike come from different tables or passages of the source.

Columns and labels:
MMP-14 = target: T1, MMP-14 (Homo sapiens, UniProt P50281); assay: In vitro MMP inhibition, Ki determination (fluorogenic substrate II); assay type: biochemical
T1 construct: The catalytic domain enzyme was expressed in E. coli inclusion bodies, solubilized in urea; made in house
Method: (§1) Several hydroxamic acids and salts thereof were analyzed in in vitro assays to determine their ability to inhibit the MMP cleavage of peptide substrates. […] and IC50 constants were calculated from the assayed hydroxamic acid-MMP interactions.
(§2) Human recombinant MMP-1, MMP-2, MMP-9, MMP-13, and MMP-14 were used in this assay. All enzymes were prepared in Assignee's laboratories following usual laboratory procedures. Protocols for the preparation and use of these enzymes are available in the scientific literature. See, e.g., Enzyme Nomenclature (Academic Press, San Diego, Calif., 1992) (and the citations therein). See also, Freije et al., “Molecular cloning and expression of collagenase-3, a novel human matrix metalloproteinase produced by breast carcinomas,” J Biol. Chem., 269(24), 16766-16773 (1994).
The MMP-14 full length cDNA was provided by Dr. Gregory Goldberg of Washington University (St. Louis, Mo.). The catalytic domain enzyme was expressed in E. coli inclusion bodies, solubilized in urea, purified on a preparative […] reverse phase HPLC column, and then refolded in the presence of zinc acetate and purified for use.
(§3) All MMPs were activated using 4-aminophenylmercuric acetate (“APMA”, Sigma Chemical, St. Louis, Mo.) or trypsin. MMP-9 also was activated using human recombinant MMP-3 (purified in Assignee's laboratory following standard cloning and purification techniques).
(§4) Two fluorogenic, methoxycoumarin-containing polypeptide substrates were used in the MMP inhibition assays: [drawing 427] Here, “Dpa” is 3-(2,4-dinitrophenyl)-L-2,3-diaminopropionyl group, and “MCA” is 7-methoxycoumarin-4-yl acetyl. Substrate (I) was purchased from Baychem (Redwood City, Calif.), and substrate II was prepared Assignee's laboratory. Substrate I was used in the IC50 determination assays, while substrate II was used in the Ki determination assays. In the absence of MMP inhibitory activity, either substrate is cleaved at the Gly-Leu peptide bond. This cleavage separates the highly fluorogenic peptide from the 2,4-dinitrophenyl quencher, thus resulting in increase of fluorescent intensity.
(§5) The stock solutions of the assayed hydroxamic acids (or salts thereof) were prepared in 1% dimethyl sulfoxide (DMSO). These stock solutions were diluted in Buffer A (100 mM Tris-HCl, 100 mM NaCl, 10 mM CaCl2, 0.05% polyoxyethylene 23 lauryl ether, pH 7.5) to obtain solutions with different hydroxamic acid concentrations, i.e., assay solutions with different concentrations of the assayed MMP inhibitory compound. The experiment controls contained the same amount of Buffer A/DMSO as the assayed sample, but contained no hydroxamic acid (or salt thereof).
(§6) The assays from which the Ki determinations were made were performed as follows. The assayed hydroxamic acid samples were incubated in separate wells of untreated white polystyrene plates (Nunc Nalgene International, Rochester, N.Y.), and analyzed on a Tecan SpectraFlour Plus plate reader. The excitation wavelength was 330 nm, and the emission wavelength—420 nm. All samples (assayed hydroxamic acids and controls) were incubated in separate plate wells at room temperature for 1 hr in the presence of 4 μM of MMP substrate (II). In the absence of MMP inhibitory activity, substrate II was cleaved at the Gly-Leu bond resulting in an increase of relative fluorescence. Inhibition was observed as a reduced rate of this increase in relative fluorescence. The various hydroxamic acids were analyzed using a single low enzyme concentration with a single substrate concentration fixed at or below the Km. This protocol is a modification of method by Knight et al., FEBS Lett., 296(3), 263-266 (1992). Apparent inhibitory constants were determined by non-linear regression of reaction velocity as a function of inhibitor and enzyme concentration using Morrison's equation, as described by Kuzmic, Anal. Biochem. 286, 45-50 (2000).

MMP-2 = target: T2, MMP-2 (Homo sapiens, UniProt P08253); assay: as above; assay type: biochemical
T2 construct: made in house; host or cells: MMP-2-transfected p2AHT2 cells
T2 sequence (P08253 110-660): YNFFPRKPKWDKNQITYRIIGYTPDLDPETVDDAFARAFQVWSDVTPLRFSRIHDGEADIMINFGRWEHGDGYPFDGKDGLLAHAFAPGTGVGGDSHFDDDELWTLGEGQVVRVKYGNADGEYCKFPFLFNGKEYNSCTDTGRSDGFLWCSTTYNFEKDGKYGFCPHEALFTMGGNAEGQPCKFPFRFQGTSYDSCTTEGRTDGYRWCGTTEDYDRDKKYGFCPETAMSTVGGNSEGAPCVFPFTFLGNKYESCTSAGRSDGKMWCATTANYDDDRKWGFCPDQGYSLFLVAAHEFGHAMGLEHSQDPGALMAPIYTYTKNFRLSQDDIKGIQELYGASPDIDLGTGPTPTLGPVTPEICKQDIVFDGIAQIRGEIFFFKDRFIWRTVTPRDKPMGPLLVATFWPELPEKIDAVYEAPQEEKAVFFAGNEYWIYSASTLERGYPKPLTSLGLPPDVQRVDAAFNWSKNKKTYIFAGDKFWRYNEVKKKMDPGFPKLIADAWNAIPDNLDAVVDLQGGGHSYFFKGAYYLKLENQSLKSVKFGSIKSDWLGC
Method: as §1, §2
The MMP-2 proenzyme was purified by gelatin Sepharose chromatography from MMP-2-transfected p2AHT2 cells provided by Dr. Gregory Goldberg of Washington University (St. Louis, Mo.).
as §3, §4, §5
as §6, with “(2000). […] Since the substrate concentration was chosen to be at or below the Km, the apparent Ki's from this analysis were reported as Ki's without correction for the influence of substrate.” for “(2000).”

[1] = human recombinant enzyme (catalytic domain), 4 μM substrate II, room temperature, 1 hr, read-out: MMP-14 Ki
[2] = human recombinant enzyme, 4 μM substrate II, room temperature, 1 hr, read-out: MMP-2 Ki
[3] = value not in parenthesis, read-out: MMP-14 Ki
[4] = value not in parenthesis, read-out: MMP-2 Ki
[5] = MMP-14 Ki, value not in parenthesis
[6] = MMP-2 Ki, value not in parenthesis

SMILES | Ki (MMP-14; [1]) [nM] | Ki (MMP-2; [2]) [nM] | Ki (MMP-14; [3]) [nM] | Ki (MMP-2; [4]) [nM] | other results
CCCCCc1ccc(N2CCN(S(=O)(=O)C3(C(=O)NO)CCOCC3)CC2)c(F)c1 [Example 23, 4-{[4-(2-fluoro-4-pentylphenyl)piperazin-1-yl]sulfonyl}-N-hydroxytetrahydro-2H-pyran-4-carboxamide Hydrochloride] | > 10000 | 8.25 | – | – | –
CCCCc1ccc(N2CCN(S(=O)(=O)C3(C(=O)NO)CCN(CCOC)CC3)CC2)cc1 [Example 5, 4-{[4-(4-butylphenyl)piperazin-1-yl]sulfonyl}-N-hydroxy-1-(2-methoxyethyl)piperidine-4-carboxamide Dihydrochloride] | 1550 | 0.62 | – | – | –
O=C(NO)C1(S(=O)(=O)N2CCN(c3ccc(OCC4CC4)c(F)c3)CC2)CCN(C2CC2)CC1 [Example 10, 1-cyclopropyl-4-[[4-[4-(cyclopropylmethoxy)-3-fluorophenyl]-1-piperazinyl]sulfonyl]-N-hydroxy-4-piperidinecarboxamide, dihydrochloride] | 4340 | 0.52 | – | – | –
CC(C)(C)N1CCC(C(=O)NO)(S(=O)(=O)N2CCN(c3ccc(OCCCC(F)(F)F)cc3F)CC2)CC1 [Example 116] | – | – | 8030 | 4.31 | –
CCCCCc1ccc(N2CCN(S(=O)(=O)C3(C(=O)NO)CCN(CCOC)CC3)CC2)cc1F [Example 13, 4-{[4-(3-fluoro-4-pentylphenyl)piperazin-1-yl]sulfonyl}-N-hydroxy-1-(2-methoxyethyl)piperidine-4-carboxamide Dihydrochloride] | 3520 | 0.549 | – | – | –
CCCCCc1cnc(N2CCN(S(=O)(=O)C3(C(=O)NO)CCOCC3)CC2)s1 [Example 56] | – | – | 795 | 1.02 | –
CCCCCCCCC1CCN(S(=O)(=O)C2(C(=O)NO)CCOCC2)CC1 [Example 26, 4-(4-octyl-piperidine-1-sulfonyl)-tetrahydro-pyran-4-carboxylic Acid Hydroxyamide] | 657 | 0.78 | – | – | –
O=C(NO)C1(S(=O)(=O)N2CCN(c3ccc(COCC(F)(F)C(F)(F)C(F)(F)C(F)F)cc3)CC2)CCOCC1 [Example 68] | – | – | – | – | Ki (MMP-14; [5]): > 10000 nM; Ki (MMP-2; [6]): 4.69 nM
O=C(NO)C1(S(=O)(=O)N2CCN(c3ccc(COCC(F)(F)C(F)(F)C(F)(F)F)cc3)CC2)CCOCC1 [Example 69] | – | – | – | – | Ki (MMP-14; [5]): > 10000 nM; Ki (MMP-2; [6]): 5.44 nM
COc1ccc(-c2cnc(N3CCN(S(=O)(=O)C4(C(=O)NO)CCOCC4)CC3)nc2)cc1 [Example 8, N-hydroxy-4-({4-[5-(4-methoxyphenyl)pyrimidin-2-yl]piperazin-1-yl}sulfonyl)tetrahydro-2H-pyran-4-carboxamide Hydrochloride] | 468 | 1.98 | – | – | –
O=C(NO)C1(S(=O)(=O)N2CCN(c3ccc(CCC(F)(F)C(F)(F)F)cc3)CC2)CCOCC1 [Example 17, N-hydroxy-4-({4-[4-(3,3,4,4,4-pentafluorobutyl)phenyl]piperazin-1-yl}sulfonyl)tetrahydro-2H-pyran-4-carboxamide Hydrochloride] | 7970 | 0.418 | – | – | –
O=C(NO)C1(S(=O)(=O)N2CCN(c3ncc(Br)cn3)CC2)CCOCC1 [Example 103] | – | – | 227 | 3.44 | –
CCCCOc1ccc(N2CCN(S(=O)(=O)C3(C(=O)NO)CCN(C(=O)NCCOC)CC3)CC2)cc1 [Example 118] | – | – | 2600 | 0.75 | –
O=C(NO)C1(S(=O)(=O)N2CCN(c3ccc(-c4ccccc4)c(F)c3)CC2)CCOCC1 [Example 12, 4-{[4-(2-fluoro-1,1′-biphenyl-4-yl)piperazin-1-yl]sulfonyl}-N-hydroxytetrahydro-2H-pyran-4-carboxamide Hydrochloride] | 1710 | 0.18 | – | – | –
O=C(NO)C1(S(=O)(=O)N2CCN(c3ccc(OCCCC(F)(F)F)cc3)CC2)CCN(c2cnccn2)CC1 [Example 112] | – | – | 1170 | 0.69 | –
COCCOc1ccc(N2CCN(S(=O)(=O)C3(C(=O)NO)CCOCC3)CC2)cc1 [Example 14, N-hydroxy-4-({4-[4-(2-methoxyethoxy)phenyl]piperazin-1-yl}sulfonyl)tetrahydro-2H-pyran-4-carboxamide Hydrochloride] | 9170 | 3.84 | – | – | –

Now from value to molecule, other results behind:

Ki (MMP-14; [1]) [nM] | Ki (MMP-2; [2]) [nM] | Ki (MMP-14; [3]) [nM] | Ki (MMP-2; [4]) [nM] | SMILES | other results
– | – | 2120 | 0.251 | CC(C)CCc1ccc(N2CCN(S(=O)(=O)C3(C(=O)NO)CCOCC3)CC2)nc1 [Example 133] | –
– | – | 6980 | 1.19 | COCCN1CCC(C(=O)NO)(S(=O)(=O)N2CCN(c3ccc(OCCC(C)C)cc3)CC2)CC1 [Example 148] | –
– | – | 1140 | 0.266 | CCCCOc1ccc(N2CCN(S(=O)(=O)C3(C(=O)NO)CCN(C(=O)OCCOC)CC3)CC2)cc1 [Example 141] | –
– | – | 3660 | 1.39 | CCCCOc1ccc(N2CCN(S(=O)(=O)C3(C(=O)NO)CCN(c4ccc(C)nc4)CC3)CC2)cc1 [Example 131] | –
– | – | 3600 | 1.07 | CCCCOc1ccc(N2CCN(S(=O)(=O)C3(C(=O)NO)CCN(c4cccnc4)CC3)CC2)cc1 [Example 154] | –
– | – | 5380 | 0.785 | CC(C)CCOc1ccc(N2CCN(S(=O)(=O)C3(C(=O)NO)CCN(C4CC4)CC3)CC2)cc1 [Example 128] | –
– | – | 4380 | 1.19 | COCCN1CCC(C(=O)NO)(S(=O)(=O)N2CCN(c3ccc(OCC(F)(F)F)cc3)CC2)CC1 [Example 119] | –
– | – | 2630 | 0.978 | CCCCOc1ccc(N2CCN(S(=O)(=O)C3(C(=O)NO)CCN(c4ccc(OC)nc4)CC3)CC2)cc1 [Example 142] | –
